ChEMBL document CHEMBL3991601, “The target landscape of clinical kinase drugs” (Science, 2017)
Calls of active or inactive are those of the source. For most assays here, no stated cut-off is given here; in the data, actives have a measured Kd and inactives only a lower limit.

Tests used:
Activin receptor type-1 = molecular target: T1, Activin receptor type-1 (Homo sapiens, UniProt Q04771)
T1 sequence (Q04771 whole entry): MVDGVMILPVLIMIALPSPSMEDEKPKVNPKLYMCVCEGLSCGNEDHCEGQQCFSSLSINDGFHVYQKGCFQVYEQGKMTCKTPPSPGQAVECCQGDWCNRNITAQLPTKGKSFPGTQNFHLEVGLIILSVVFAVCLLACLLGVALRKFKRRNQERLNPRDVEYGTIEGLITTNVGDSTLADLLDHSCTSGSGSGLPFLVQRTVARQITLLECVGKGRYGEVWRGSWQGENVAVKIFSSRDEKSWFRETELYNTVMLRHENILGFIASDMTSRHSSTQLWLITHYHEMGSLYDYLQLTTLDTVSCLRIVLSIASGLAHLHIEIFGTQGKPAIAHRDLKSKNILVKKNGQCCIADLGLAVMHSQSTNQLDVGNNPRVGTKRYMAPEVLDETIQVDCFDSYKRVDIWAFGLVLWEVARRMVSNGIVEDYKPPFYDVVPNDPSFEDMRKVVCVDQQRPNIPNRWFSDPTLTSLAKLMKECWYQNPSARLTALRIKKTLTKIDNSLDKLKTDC

[1] = molecular target: T2, Peroxisomal acyl-coenzyme A oxidase 3 (Homo sapiens, UniProt O15254)
T2 sequence (O15254 whole entry): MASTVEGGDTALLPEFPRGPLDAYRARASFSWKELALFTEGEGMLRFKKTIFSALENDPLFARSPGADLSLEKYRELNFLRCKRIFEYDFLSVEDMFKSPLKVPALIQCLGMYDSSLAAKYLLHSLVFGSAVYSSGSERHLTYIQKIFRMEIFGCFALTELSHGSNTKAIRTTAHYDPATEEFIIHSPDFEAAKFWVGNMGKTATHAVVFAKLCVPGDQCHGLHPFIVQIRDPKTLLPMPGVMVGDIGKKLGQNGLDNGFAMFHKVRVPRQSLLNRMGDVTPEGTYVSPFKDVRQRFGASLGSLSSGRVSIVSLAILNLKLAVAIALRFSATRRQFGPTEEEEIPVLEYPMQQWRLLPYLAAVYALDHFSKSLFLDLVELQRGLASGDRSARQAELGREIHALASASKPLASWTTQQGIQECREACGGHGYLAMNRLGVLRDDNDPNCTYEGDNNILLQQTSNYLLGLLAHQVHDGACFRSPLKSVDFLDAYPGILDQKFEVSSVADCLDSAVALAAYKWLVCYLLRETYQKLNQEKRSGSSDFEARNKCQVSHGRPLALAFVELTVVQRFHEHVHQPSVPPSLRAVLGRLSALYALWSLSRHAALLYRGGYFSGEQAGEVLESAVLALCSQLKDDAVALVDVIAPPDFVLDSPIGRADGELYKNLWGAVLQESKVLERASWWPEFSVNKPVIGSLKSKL

[2] = molecular target: T3, Serine/threonine-protein kinase D2 (Homo sapiens, UniProt Q9BZL6)
T3 sequence (Q9BZL6 whole entry): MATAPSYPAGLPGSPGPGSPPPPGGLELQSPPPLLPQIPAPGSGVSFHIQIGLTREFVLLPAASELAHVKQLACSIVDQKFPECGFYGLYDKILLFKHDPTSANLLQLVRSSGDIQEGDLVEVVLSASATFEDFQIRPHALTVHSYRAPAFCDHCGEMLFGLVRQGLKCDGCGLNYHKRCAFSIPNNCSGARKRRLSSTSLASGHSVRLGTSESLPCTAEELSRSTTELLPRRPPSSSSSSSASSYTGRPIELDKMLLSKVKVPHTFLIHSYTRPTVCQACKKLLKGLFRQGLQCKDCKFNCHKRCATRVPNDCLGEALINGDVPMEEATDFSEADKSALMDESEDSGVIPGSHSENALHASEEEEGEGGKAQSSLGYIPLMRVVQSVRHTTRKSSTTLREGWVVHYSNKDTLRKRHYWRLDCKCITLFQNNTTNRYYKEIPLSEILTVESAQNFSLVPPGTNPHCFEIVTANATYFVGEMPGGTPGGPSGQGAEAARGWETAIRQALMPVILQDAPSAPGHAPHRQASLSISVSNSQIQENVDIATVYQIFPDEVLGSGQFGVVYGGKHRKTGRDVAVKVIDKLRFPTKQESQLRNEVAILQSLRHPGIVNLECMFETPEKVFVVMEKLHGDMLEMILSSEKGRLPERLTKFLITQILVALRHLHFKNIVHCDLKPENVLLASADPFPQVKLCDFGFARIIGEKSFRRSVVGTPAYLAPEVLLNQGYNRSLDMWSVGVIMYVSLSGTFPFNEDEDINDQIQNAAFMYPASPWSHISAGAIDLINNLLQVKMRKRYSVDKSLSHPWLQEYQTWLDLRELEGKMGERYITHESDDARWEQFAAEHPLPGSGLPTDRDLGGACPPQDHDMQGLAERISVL

[3] = molecular target: Epithelial discoidin domain-containing receptor 1 (Homo sapiens, UniProt Q08345)
[4] = molecular target: cAMP-dependent protein kinase catalytic subunit beta (Homo sapiens, UniProt P22694)
[5] = molecular target: Eukaryotic translation initiation factor 2-alpha kinase 1 (Homo sapiens, UniProt Q9BQI3)
Ephrin type-A receptor 4 = Ephrin type-A receptor 4 (Homo sapiens, UniProt P54764)
Deoxycytidine kinase = Deoxycytidine kinase (Homo sapiens, UniProt P27707)
Chain of Deoxycytidine kinase (P27707 whole entry): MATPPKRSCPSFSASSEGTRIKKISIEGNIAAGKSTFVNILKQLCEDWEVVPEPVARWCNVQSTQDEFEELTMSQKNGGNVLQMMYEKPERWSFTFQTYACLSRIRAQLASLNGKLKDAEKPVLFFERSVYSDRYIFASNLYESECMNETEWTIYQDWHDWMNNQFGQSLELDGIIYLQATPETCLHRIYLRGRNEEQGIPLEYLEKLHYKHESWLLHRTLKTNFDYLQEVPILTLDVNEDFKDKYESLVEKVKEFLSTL

Chain of Ephrin type-A receptor 4 (P54764 whole entry): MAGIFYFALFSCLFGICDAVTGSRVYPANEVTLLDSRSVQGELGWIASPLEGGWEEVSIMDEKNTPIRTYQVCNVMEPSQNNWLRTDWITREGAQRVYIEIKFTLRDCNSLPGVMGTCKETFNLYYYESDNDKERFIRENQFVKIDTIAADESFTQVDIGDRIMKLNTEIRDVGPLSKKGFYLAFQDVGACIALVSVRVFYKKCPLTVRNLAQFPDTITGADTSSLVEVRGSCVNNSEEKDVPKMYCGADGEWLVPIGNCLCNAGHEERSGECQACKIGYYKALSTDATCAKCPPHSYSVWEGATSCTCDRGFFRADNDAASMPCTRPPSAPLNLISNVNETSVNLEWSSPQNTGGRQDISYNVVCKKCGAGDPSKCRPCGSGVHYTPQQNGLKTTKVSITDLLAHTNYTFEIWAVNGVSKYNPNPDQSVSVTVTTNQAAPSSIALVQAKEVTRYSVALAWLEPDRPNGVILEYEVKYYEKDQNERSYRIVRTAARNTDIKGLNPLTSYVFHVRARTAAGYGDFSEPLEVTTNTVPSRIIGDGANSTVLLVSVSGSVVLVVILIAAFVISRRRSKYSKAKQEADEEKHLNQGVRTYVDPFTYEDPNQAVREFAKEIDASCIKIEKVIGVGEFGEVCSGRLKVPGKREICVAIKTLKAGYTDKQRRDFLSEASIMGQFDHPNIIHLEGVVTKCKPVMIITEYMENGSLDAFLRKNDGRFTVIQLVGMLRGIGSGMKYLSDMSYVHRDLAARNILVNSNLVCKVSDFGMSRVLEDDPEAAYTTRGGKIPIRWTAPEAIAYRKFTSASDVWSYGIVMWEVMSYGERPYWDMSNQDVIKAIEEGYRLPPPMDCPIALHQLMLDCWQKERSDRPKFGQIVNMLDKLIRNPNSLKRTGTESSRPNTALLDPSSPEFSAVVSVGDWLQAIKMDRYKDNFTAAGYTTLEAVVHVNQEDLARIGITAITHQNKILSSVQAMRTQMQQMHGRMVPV
Chain of Epithelial discoidin domain-containing receptor 1 (Q08345 whole entry, the tested form may be a part): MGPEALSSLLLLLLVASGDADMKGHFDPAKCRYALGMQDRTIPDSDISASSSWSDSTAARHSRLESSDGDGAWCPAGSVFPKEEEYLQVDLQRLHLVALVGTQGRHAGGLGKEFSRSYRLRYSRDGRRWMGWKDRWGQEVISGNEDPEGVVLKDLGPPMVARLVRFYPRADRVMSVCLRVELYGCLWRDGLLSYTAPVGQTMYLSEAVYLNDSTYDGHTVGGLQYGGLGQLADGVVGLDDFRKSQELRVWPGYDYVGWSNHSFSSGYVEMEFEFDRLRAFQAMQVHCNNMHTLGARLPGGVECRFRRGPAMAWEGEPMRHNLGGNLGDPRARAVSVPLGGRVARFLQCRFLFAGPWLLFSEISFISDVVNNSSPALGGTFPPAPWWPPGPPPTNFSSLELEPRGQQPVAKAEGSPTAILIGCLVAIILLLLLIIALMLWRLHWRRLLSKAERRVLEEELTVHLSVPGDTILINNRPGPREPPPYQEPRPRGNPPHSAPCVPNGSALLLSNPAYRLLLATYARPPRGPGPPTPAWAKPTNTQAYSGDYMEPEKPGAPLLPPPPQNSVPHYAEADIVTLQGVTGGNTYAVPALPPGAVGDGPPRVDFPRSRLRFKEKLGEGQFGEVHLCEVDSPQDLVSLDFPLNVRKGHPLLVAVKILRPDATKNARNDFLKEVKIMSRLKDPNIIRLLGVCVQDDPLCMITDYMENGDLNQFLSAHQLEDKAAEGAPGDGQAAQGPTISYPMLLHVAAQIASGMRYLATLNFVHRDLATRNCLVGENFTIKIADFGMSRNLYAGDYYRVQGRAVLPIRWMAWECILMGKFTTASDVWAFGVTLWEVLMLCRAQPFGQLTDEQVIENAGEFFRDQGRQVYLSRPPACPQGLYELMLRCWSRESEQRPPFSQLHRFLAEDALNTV
Chain of Eukaryotic translation initiation factor 2-alpha kinase 1 (Q9BQI3 whole entry): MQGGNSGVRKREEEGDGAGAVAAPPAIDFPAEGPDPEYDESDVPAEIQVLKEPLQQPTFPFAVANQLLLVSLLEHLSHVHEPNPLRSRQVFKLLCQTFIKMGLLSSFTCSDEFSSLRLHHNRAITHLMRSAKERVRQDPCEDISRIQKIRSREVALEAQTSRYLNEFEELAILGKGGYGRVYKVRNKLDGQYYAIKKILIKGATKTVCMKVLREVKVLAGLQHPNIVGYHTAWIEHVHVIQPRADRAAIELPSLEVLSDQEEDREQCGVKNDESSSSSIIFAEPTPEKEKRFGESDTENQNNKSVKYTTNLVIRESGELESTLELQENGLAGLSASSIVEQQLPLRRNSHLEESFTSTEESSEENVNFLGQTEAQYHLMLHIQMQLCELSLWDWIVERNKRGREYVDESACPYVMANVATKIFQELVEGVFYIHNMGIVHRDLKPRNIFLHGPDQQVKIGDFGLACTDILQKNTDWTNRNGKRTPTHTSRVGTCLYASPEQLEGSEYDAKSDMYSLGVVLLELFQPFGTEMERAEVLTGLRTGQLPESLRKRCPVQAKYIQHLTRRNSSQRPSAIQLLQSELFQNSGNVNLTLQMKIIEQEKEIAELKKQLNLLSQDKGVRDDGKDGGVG

SMILES | Kd (Activin receptor type-1) | Kd [1] | Kd [2] | Kd [3] | Kd [4] | Kd [5] | Kd (Ephrin type-A receptor 4) | Kd (Deoxycytidine kinase)
NC[C@@](O)(c1ccc(Cl)cc1)c1ccc(-c2cn[nH]c2)cc1 [AT-13148] | > 30 µM (inactive) | > 30 µM (inactive) | > 30 µM (inactive) | > 30 µM (inactive) | 0.014 µM (active) | > 30 µM (inactive) | > 30 µM (inactive) | > 30 µM (inactive)
Cc1cc(Nc2nc(N[C@@H](C)c3ncc(F)cn3)ncc2Cl)n[nH]1 [AZD-1480] | > 30 µM (inactive) | > 30 µM (inactive) | > 30 µM (inactive) | > 30 µM (inactive) | > 30 µM (inactive) | > 30 µM (inactive) | > 30 µM (inactive) | > 30 µM (inactive)
COc1ccc(-c2ccc3ncc4c(c3c2)n(-c2ccc(N3CCNCC3)c(C(F)(F)F)c2)c(=O)n4C)cn1 [BGT-226 FREE BASE] | > 30 µM (inactive) | > 30 µM (inactive) | > 30 µM (inactive) | > 30 µM (inactive) | > 30 µM (inactive) | > 30 µM (inactive) | > 30 µM (inactive) | > 30 µM (inactive)
COc1cccc(Nc2ncnn3ccc(CN4CC[C@@H](N)[C@H](O)C4)c23)c1 [BMS-690514] | > 30 µM (inactive) | > 30 µM (inactive) | 0.14 µM (active) | > 30 µM (inactive) | 1.21 µM (active) | > 30 µM (inactive) | > 30 µM (inactive) | > 30 µM (inactive)
CCOc1ccn(-c2ccc(F)cc2)c(=O)c1C(=O)Nc1ccc(Oc2ccnc(N)c2Cl)c(F)c1 [BMS-777607] | > 30 µM (inactive) | > 30 µM (inactive) | > 30 µM (inactive) | 0.039 µM (active) | > 30 µM (inactive) | > 30 µM (inactive) | > 30 µM (inactive) | > 30 µM (inactive)
COc1cc2nccc(Oc3ccc(NC(=O)C4(C(=O)Nc5ccc(F)cc5)CC4)cc3)c2cc1OC [CABOZANTINIB] | > 30 µM (inactive) | > 30 µM (inactive) | > 30 µM (inactive) | 0.209 µM (active) | > 30 µM (inactive) | > 30 µM (inactive) | > 30 µM (inactive) | > 30 µM (inactive)
c1cc(OCCN2CCCCC2)cc(-c2n[nH]c3ccc(-c4nc[nH]n4)cc23)c1 [CC-401] | > 30 µM (inactive) | > 30 µM (inactive) | 0.056 µM (active) | > 30 µM (inactive) | > 30 µM (inactive) | > 30 µM (inactive) | > 30 µM (inactive) | > 30 µM (inactive)
CC1(COc2ccc3c(c2)ncn3-c2ccc3cccc(N4CCC(N)CC4)c3n2)COC1 [CRENOLANIB] | > 30 µM (inactive) | > 30 µM (inactive) | > 30 µM (inactive) | > 30 µM (inactive) | > 30 µM (inactive) | > 30 µM (inactive) | > 30 µM (inactive) | > 30 µM (inactive)
COc1cc2ncnc(Nc3ccc(F)c(Cl)c3)c2cc1NC(=O)/C=C/CN1CCCCC1 [DACOMITINIB ANHYDROUS] | > 30 µM (inactive) | > 30 µM (inactive) | > 30 µM (inactive) | > 30 µM (inactive) | > 30 µM (inactive) | > 30 µM (inactive) | > 30 µM (inactive) | > 30 µM (inactive)
Cn1c(=O)n(-c2ccc(C(C)(C)C#N)cc2)c2c3cc(-c4cnc5ccccc5c4)ccc3ncc21 [DACTOLISIB] | > 30 µM (inactive) | > 30 µM (inactive) | > 30 µM (inactive) | > 30 µM (inactive) | > 30 µM (inactive) | > 30 µM (inactive) | > 30 µM (inactive) | > 30 µM (inactive)
CC[C@@](C)(Nc1ccnc(-c2c[nH]c3ncccc23)n1)C(=O)NCC(F)(F)F [DECERNOTINIB] | > 30 µM (inactive) | > 30 µM (inactive) | > 30 µM (inactive) | > 30 µM (inactive) | > 30 µM (inactive) | > 30 µM (inactive) | > 30 µM (inactive) | > 30 µM (inactive)
CNC(=O)c1ccc(Nc2ncc(C(F)(F)F)c(NCc3nccnc3N(C)S(C)(=O)=O)n2)cc1 [DEFACTINIB] | > 30 µM (inactive) | > 30 µM (inactive) | > 30 µM (inactive) | > 30 µM (inactive) | > 30 µM (inactive) | > 30 µM (inactive) | > 30 µM (inactive) | > 30 µM (inactive)
COc1cc(Nc2ncc(F)c(Nc3ccc4c(n3)N(COP(=O)(O)O)C(=O)C(C)(C)O4)n2)cc(OC)c1OC [FOSTAMATINIB] | > 30 µM (inactive) | > 30 µM (inactive) | > 30 µM (inactive) | > 30 µM (inactive) | > 30 µM (inactive) | > 30 µM (inactive) | > 30 µM (inactive) | > 30 µM (inactive)
Cc1c(Cn2c(C)nc3c(C(=O)O)cc(N4CCOCC4)cc32)cccc1C(F)(F)F [GSK-2636771] | > 30 µM (inactive) | > 30 µM (inactive) | > 30 µM (inactive) | > 30 µM (inactive) | > 30 µM (inactive) | > 30 µM (inactive) | > 30 µM (inactive) | > 30 µM (inactive)
O=S(=O)(c1cccc2c(O)nccc12)N1CCCNCC1 [HYDROXYFASUDIL] | > 30 µM (inactive) | > 30 µM (inactive) | 2.54 µM (active) | > 30 µM (inactive) | > 30 µM (inactive) | > 30 µM (inactive) | > 30 µM (inactive) | > 30 µM (inactive)
C#Cc1cccc(Nc2ncnc3cc4c(cc23)OCCOCCOCCO4)c1 [ICOTINIB] | > 30 µM (inactive) | > 30 µM (inactive) | > 30 µM (inactive) | > 30 µM (inactive) | > 30 µM (inactive) | > 30 µM (inactive) | > 30 µM (inactive) | > 30 µM (inactive)
COc1cc2ncnc3c2cc1OCCCCCN(C)Cc1ccc(Br)cc1N3 [JNJ-26483327] | > 30 µM (inactive) | > 30 µM (inactive) | > 30 µM (inactive) | > 30 µM (inactive) | > 30 µM (inactive) | > 30 µM (inactive) | > 30 µM (inactive) | > 30 µM (inactive)
Cc1ccc(C(=O)Nc2ccc(Oc3cc4cnn(C)c4cc3-c3cn[nH]c3)c(F)c2)c(=O)n1-c1ccc(F)cc1 [MERESTINIB] | > 30 µM (inactive) | > 30 µM (inactive) | > 30 µM (inactive) | 0.174 µM (active) | > 30 µM (inactive) | > 30 µM (inactive) | > 30 µM (inactive) | > 30 µM (inactive)
O=C(NOC[C@H](O)CO)c1ccc(F)c(F)c1Nc1ccc(I)cc1F [MIRDAMETINIB] | > 30 µM (inactive) | > 30 µM (inactive) | > 30 µM (inactive) | > 30 µM (inactive) | > 30 µM (inactive) | > 30 µM (inactive) | > 30 µM (inactive) | > 30 µM (inactive)
